Results reported in ChEMBL document CHEMBL4823292, “Design, synthesis, and functional evaluation of triazine-based bivalent agents that simultaneously target the active site and hot spot of phosphatase Cdc25B” (Bioorg Med Chem Lett, 2021).
Activity calls are given as the source filed them. No cut-off for these calls is given here.

Columns and labels:
[1] = target: T1, M-phase inducer phosphatase 2 (Homo sapiens) (UniProt P30305); assay: Inhibition of recombinant human Cdc25B ([…] residues) using O-methylfluorescein phosphate as substrate at 1 to 500 uM by fluorescence assay; conditions: dose 1-500 µM
T1 sequence (whole entry): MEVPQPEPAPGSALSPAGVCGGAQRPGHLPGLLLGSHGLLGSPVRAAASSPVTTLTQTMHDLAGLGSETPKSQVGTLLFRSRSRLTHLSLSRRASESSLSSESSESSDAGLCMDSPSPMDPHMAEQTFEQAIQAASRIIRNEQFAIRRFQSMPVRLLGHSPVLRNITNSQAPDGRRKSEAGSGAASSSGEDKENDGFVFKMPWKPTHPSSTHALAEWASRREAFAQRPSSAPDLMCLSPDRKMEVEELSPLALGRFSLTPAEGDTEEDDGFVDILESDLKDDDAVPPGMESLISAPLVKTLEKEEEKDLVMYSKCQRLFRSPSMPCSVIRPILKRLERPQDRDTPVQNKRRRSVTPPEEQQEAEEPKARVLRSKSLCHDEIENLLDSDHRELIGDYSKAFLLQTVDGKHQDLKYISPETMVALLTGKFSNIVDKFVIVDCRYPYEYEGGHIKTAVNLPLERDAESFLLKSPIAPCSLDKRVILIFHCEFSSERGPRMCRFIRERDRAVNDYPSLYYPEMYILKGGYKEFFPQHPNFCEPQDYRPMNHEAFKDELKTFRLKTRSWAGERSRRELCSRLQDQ

[2] = target: T2, M-phase inducer phosphatase 1 (Homo sapiens) (UniProt P30304); assay: Inhibition of Cdc25A (unknown origin) at 1 to 500 uM by fluorescence assay; conditions: dose 1-500 µM
T2 sequence (whole entry): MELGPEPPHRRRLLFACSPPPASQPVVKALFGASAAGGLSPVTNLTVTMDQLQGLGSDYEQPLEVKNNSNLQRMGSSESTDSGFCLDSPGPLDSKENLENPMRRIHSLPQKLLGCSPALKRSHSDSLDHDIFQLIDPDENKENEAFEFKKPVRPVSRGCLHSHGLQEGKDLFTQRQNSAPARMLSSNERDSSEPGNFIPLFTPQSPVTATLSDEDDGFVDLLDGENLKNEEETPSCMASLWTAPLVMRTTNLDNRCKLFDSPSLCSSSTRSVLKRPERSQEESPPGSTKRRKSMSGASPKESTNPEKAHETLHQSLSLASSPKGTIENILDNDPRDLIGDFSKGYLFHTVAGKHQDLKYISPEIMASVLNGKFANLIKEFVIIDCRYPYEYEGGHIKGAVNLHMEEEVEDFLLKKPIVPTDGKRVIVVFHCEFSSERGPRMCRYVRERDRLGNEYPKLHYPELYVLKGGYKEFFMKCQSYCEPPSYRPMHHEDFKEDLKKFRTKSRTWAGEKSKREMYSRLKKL

[3] = target: T1, M-phase inducer phosphatase 2 (Homo sapiens); assay: Inhibition of recombinant human Cdc25B ([…] residues) using O-methylfluorescein phosphate as substrate at 1 to 30 uM by fluorescence assay; conditions: dose 1-30 µM
[4] = target: T1, M-phase inducer phosphatase 2 (Homo sapiens); assay: Inhibition of recombinant human Cdc25B ([…] residues) using O-methylfluorescein phosphate as substrate at 30 uM by fluorescence assay
[5] = target: T2, M-phase inducer phosphatase 1 (Homo sapiens); assay: Inhibition of Cdc25A (unknown origin) at 1 to 30 uM; conditions: dose 1-30 µM
[6] = target: T3, M-phase inducer phosphatase 2 (Homo sapiens, UniProt P30305); assay: Competitive inhibition of recombinant human Cdc25B ([…] residues) assessed as hydrolysis of substrate O-methylfluorescein phosphate by Lineweaver-Burk plot analysis
T3 sequence (P30305 whole entry): T1 sequence (whole entry)

Row | SMILES | inhibition (active/inactive) [1] | inhibition [2] | other results
1 | COC(=O)[C@H](CCCCN)Nc1nc(NCCCCCNC(=O)CCCNc2nc(N[C@@H](CCCCN)C(=O)OC)nc(N[C@@H](CCCCN)C(=O)OC)n2)nc(N[C@@H](CCCCN)C(=O)OC)n1 | Active | – | –
2 | C[C@H](Nc1nc(NCCCCCNC(=O)CCCNc2nc(N[C@@H](C)C(=O)O)nc(N[C@@H](C)C(=O)O)n2)nc(N[C@@H](C)C(=O)O)n1)C(=O)O | Active | Active | –
3 | C[C@H](Nc1nc(NCCCCCNC(=O)CCCNc2nc(N[C@@H](CC(=O)O)C(=O)O)nc(N[C@@H](Cc3ccc(O)cc3)C(=O)O)n2)nc(N[C@@H](C)C(=O)O)n1)C(=O)O | Active | – | –
4 | O=C(O)C[C@H](Nc1nc(O)nc(N[C@@H](Cc2c[nH]c3ccccc23)C(=O)O)n1)C(=O)O | – | – | inhibition [3]: inactive
5 | O=C(O)C[C@H](Nc1nc(NCCCCCCCCCCNc2nc(N[C@@H](CC(=O)O)C(=O)O)nc(N[C@@H](Cc3c[nH]c4ccccc34)C(=O)O)n2)nc(N[C@@H](Cc2ccc(O)cc2)C(=O)O)n1)C(=O)O | – | – | inhibition [4]: 1.5%; inhibition [5]: Active
6 | O=C(O)C[C@H](Nc1nc(O)nc(N[C@@H](Cc2ccc(O)cc2)C(=O)O)n1)C(=O)O | – | – | inhibition [3]: inactive

Second part, led by results:

Row | inhibition (active/inactive) [1] | inhibition [2] | SMILES | other results
7 | Active | inactive | CC(C)C[C@H](Nc1nc(NCCCCCNC(=O)CCCNc2nc(N[C@@H](CC(=O)O)C(=O)O)nc(N[C@@H](Cc3ccc(O)cc3)C(=O)O)n2)nc(N[C@@H](C)C(=O)O)n1)C(=O)O | –
8 | Active | inactive | O=C(O)C[C@H](Nc1nc(NCCCC(=O)NCCCCCNc2nc(N[C@@H](CC(=O)O)C(=O)O)nc(N[C@@H](Cc3c[nH]c4ccccc34)C(=O)O)n2)nc(N[C@@H](Cc2ccc(O)cc2)C(=O)O)n1)C(=O)O | inhibition [4]: 43%; Ki [6]: 2.6 µM
